Measurements as given in patent US12628822B2, “Plant pathogen defence elicitors” (UNIVERSITÉ LIBRE DE BRUXELLES, priority 2020, dated 2026).

How the values were obtained:
defence marker genes = experiment: qPCR analysis of defence marker gene expression in Arabidopsis plants; format: in vivo, Arabidopsis thaliana
Description: Arabidopsis thaliana Columbia (Col-0) was the accession used for all the experiments. Seeds were surface sterilised by subsequent treatment with 50% v/v Et-OH and 3% bleach solution in agitation for 5 and 10 min, respectively. Seeds were then washed three times with distilled water and stratified for 3 days at 4° C. in the dark. For qPCR analysis and microarray experiments, seeds were sown on square petri dishes ([…]) containing half strength Murashige and Skoog (MS) salt, 2.5 mM MES, 1% w/v sucrose and 0.8% w/v plant agar. The experiments were performed using 14-day old seedlings grown vertically in a controlled growth cabinet with short day conditions ( 8/16 h light/dark; 100 μmol photons m^−2 s^−1) at 22±0.5° C. Treatments were performed by applying 40-50 μl of fresh-prepared and filtered solution per seedling.
For RNA extraction, 14-day old leaves from ten independent plants were collected at the indicated time point after treatments, pooled and frozen in liquid nitrogen. Total RNA was extracted from 100 mg of ground-frozen samples using the Maxwell® LEV Plant RNA Kit (Promega, Madison, WI, USA) and the RNA integrity was determined through NanoDrop 2000 UV-Vis Spectrophotometer (Thermo Scientific, Loughborough, UK). First-strand cDNA was synthesized by using SOLIScript® RT cDNA synthesis MIX (Solis Biodyne, Tartu, Estonia) and qPCRs were performed using SYBR® Selected MasterMix 2× (Applied Biosystems, Thermo Fisher Scientific, Waltham, USA), following the manufacturers' protocols. The cycling conditions consisted of an initial 7 min at 95° C., followed by 40 two-step cycles at 95° C. for 5 s and at 60° C. for 30 s. Melting curve analysis was performed after cycle completion to validate amplicon identity. Relative expression levels were calculated following the standard curve-based method (Larionov et al. A standard curve based method for relative real time PCR data processing, BMC Bioinformatics. 2005, vol. 6, 1) by using ACTIN as reference. Gene-specific primers used in this work are indicated below. […]

MPK3/6 = experiment: Western-blot analysis of MPK3/6 phosphorylation; format: in vivo, Arabidopsis thaliana; conditions: 100 μM, 5 mins after treatment, Col-0 plants
Description: FIG. 10d illustrates early immunohistochemical quantification or Western-blot analysis of the MPK3/6 phosphorylation after the indicated treatments. […] Leaves were collected 5 mins after treatment, immediately frozen in liquid nitrogen, and stored at −80° C. for analysis. […] The separated proteins were transferred on a 0.45-μm Immobilon-PPVDF membrane (Millipore). Blocking was performed in TBST containing 5% non-fat dry milk, and blots were incubated overnight at 4° C. with specific antibodies (anti-AtMPK6 and anti-Phospho-p44/42 MPK (Thr202/Tyr204)), washed in TBST, and incubated with the secondary antibody anti-Rabbit IgG conjugated with horseradish peroxidase (HRP) enzyme diluted to 1/10,000. The chemiluminescent detection of HRP was performed withClarity™Western ECL Substrate and ChemiDoc™MP Imaging System.

oxidative burst = experiment: Oxidative burst detection (DAB, NBT, luminol-based assays); format: in vivo, Arabidopsis thaliana
Description: Hydrogen peroxide was assayed in both in vitro-growth and in soil-growth Arabidopsis plants. In situ detection of H2O2 was performed following the protocol described by Daudi and O'Brien (Detection of Hydrogen Peroxide by DAB Staining in Arabidopsis Leaves. Bio Protoc. 2012, vol. 2(18), e263). Briefly, 5-week-old Col-O plants leaves were droplet-treated (40-50 μl drops per leaf) with indicated compounds. At 24 h after treatment four rosette leaves from five independent plants were gently vacuum-infiltrated (5 min) with 1 mg ml^−1 3,3′-diaminobenzidine (DAB) dissolved in 10 mM sodium phosphate buffer and 0.05% v/v Tween 80. The staining reaction was terminated 5 h after DAB infiltration, and leaves were fixed in ethanol:glycerol:acetic acid 3:1:1. Chlorophyll was removed by several washing steps with 70% v/v ethanol and pictures were token with a stereomicroscope (Discovery V8, Zeiss).
Elicitor-induced H2O2 was also detected by luminol-peroxidase-based assay as described by Albert et al. (Chemiluminescence Detection of the Oxidative Burst in Plant Leaf Pieces. Bio-protocol 2015, vol. 5(6), e1423). Briefly, twenty leaves from 10 independent 4-5-week-old Col-0 plants were cut and incubated in ddH2O overnight. Time course luminescence was evaluated using The SpectraMax iD3 Multi-Mode Microplate Reader (Molecular devices, San Jose, CA, USA) with an integration time per well=1000 ms. […]

Botrytis cinerea = experiment: Protection of tomato plants against Botrytis cinerea (lesion areas); format: in vivo; conditions: 100 μM; 4 weeks old tomato plants; compared with 100 μM AA9_COS
Description: All experiments were carried on 4 weeks old tomato plants infected with 10^6 spores per millilitres of Botrytis cinerea.
Protection of tomatoes plant against pathogen Botrytis cinerea using several combinations of native cellodextrines, and C1-oxidised, C4-oxidised, and optionally C1- and C4-oxidised (double oxidised) cellodextrines was tested (FIG. 14). In particular, the numerals in FIG. 14 represent mixtures with the following molar proportions of the respective cellodextrins components: • native:C1-oxidised:C4-oxidised • (1) 4:5:1; (2) 6.5:3:0.5; (3) 3:6.5:0.5; (4) 4:3:3; (5) 4:1:5; (6) 0.5:9:0.5; • native:C1-oxidised:C4-oxidised:doubly oxidised • (7) 0.5:4:0.5:5; (8) 2.5:2.5:2.5:2.5.
All experiments were carried on 4 weeks old tomato plants infected with 10^6 spores of Botrytis cinerea. All mixtures were applied having the same molar mass concentration of 100 μM.

[1] = vs CTR, same array-hybridised RNA

SMILES: OC[C@H]1O[C@@H](O[C@H]2[C@H](O)[C@@H](O)[C@H](O)O[C@@H]2CO)[C@H](O)[C@@H](O)[C@@H]1O [Cellobiose, β-D-glucopyranosyl(1→4)D-glucopyranose]
- mRNA accumulation of MPK3/6, WRKY33, PAD3 and PEN3 (defence marker genes; 100 μM, 1 and 24 hours, 14-day old plants): lower magnitude of expression
- LOX4 (AT1G72520) gene expression, qPCR (defence marker genes; [1]): 0.69 fold change
- MPK3 (AT3G45640) gene expression, qPCR (defence marker genes; [1]): 0.02 fold change
- MPK6 (AT2G43790) gene expression, qPCR (defence marker genes; [1]): 0.55 fold change
- PAD3 (AT3G26830) gene expression, qPCR (defence marker genes; [1]): −1.06 fold change
- PEN3 (AT1G59870) gene expression, qPCR (defence marker genes; [1]): 1.07 fold change
- PR1 (AT2G14610) gene expression, qPCR (defence marker genes; [1]): 1.29 fold change
- WRKY18 (AT4G31800) gene expression, qPCR (defence marker genes; [1]): 2.60 fold change
- WRKY22 (AT4G01250) gene expression, qPCR (defence marker genes; [1]): 1.10 fold change
- WRKY33 (AT2G38470) gene expression, qPCR (defence marker genes; [1]): 1.31 fold change
- IGMT2 (At1G21120) gene expression, qPCR (defence marker genes; vs mock, same array-hybridised RNA): −1.59 fold change
- Early MPK3/6 phosphorylation (MPK3/6): no phosphorylation was observed
- short-term extracellular H2O2 production (luminol-based assay) (oxidative burst; 14-day old plants): no H2O2 production was detected
- in situ production of H2O2 and O2− (DAB and NBT assays) (oxidative burst; 24 h after treatments, 5-week old plants): no measurable production
- protection of tomato plants (size of lesion areas) (Botrytis cinerea): less protective effect
